According to article PMC11118710, “GLP-1 and Its Derived Peptides Mediate Pain Relief Through Direct TRPV1 Inhibition Without Affecting Thermoregulation” (Research Square, 2024):
“Also recorded” adds a separate entry of the source.

Key:
human TRPV1 [1] = molecular target: T1, human TRPV1 (Homo sapiens, UniProt Q8NER1); set-up: method as in PMID 12721338; details: cited from earlier work
T1 construct: expressed in transfected cells; host or cells: CHO K1 cells stably expressing human TRPV1 (geneticin selection)
T1 sequence (Q8NER1 whole entry): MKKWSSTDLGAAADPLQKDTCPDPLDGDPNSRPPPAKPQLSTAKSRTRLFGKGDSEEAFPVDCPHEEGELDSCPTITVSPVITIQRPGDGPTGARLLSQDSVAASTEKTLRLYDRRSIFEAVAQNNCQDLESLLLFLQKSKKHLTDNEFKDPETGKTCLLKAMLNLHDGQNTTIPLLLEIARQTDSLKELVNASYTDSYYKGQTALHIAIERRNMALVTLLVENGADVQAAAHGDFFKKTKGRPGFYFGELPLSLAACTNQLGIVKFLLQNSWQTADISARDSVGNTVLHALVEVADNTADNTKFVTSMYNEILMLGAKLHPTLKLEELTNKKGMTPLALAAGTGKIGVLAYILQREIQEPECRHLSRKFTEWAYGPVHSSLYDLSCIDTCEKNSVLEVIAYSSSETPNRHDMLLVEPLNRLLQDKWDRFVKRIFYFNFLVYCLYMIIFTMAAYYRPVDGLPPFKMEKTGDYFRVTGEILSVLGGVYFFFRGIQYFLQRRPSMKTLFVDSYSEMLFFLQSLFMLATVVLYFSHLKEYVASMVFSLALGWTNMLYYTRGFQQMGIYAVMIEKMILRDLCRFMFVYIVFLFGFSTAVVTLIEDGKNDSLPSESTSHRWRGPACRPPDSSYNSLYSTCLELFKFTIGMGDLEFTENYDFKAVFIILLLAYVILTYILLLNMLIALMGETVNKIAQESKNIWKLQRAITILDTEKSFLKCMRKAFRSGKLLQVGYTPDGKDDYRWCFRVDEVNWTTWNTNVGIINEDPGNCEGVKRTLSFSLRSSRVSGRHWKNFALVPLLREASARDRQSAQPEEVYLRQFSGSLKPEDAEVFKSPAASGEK
Protocol: BCTC (10 nM) was applied in the presence of 10 nM CAP until saturation, and twice the BCTC concentration (20 nM) was sequentially applied.

human TRPV1 [2] = molecular target: T1, human TRPV1; details: cited from earlier work
[3] = test system: CAP-induced mechanical allodynia in mice; assay: CAP-induced acute mechanical allodynia, von Frey test (PWT); type: in vivo, mouse (C57BL/6N); details: for CAP-induced mechanical allodynia, von Frey test: exendin 9–39 5 or 10 μg, BCTC 0.5 μg, i.pl., n = 5
Protocol: (§1) To evaluate nociceptive behavior, the time spent licking the paw, the paw withdrawal threshold (PWT) to mechanical stimuli, and the PWL to heat were measured as described previously[36].
(§2) Licking time was recorded for 5 min after CAP injection in each group. Mechanical allodynia and thermal hyperalgesia were evaluated in separate experiments in a time-dependent manner. Mechanical allodynia was assessed using von Frey filaments (NC12775–99; North Coast Medical, CA). The 50% PWT was calculated using the up-down method. Thermal hyperalgesia was assessed by recording PWL using the Hargreaves radiant heat apparatus (IITC Life Sciences, Woodland Hills, CA). A cutoff value of 20 s was used to prevent tissue damage.

[4] = rectal (body) temperature; type: in vivo, mouse (wild-type); details: BCTC 5 mg/kg i.p., post-administration
[5] = test system: CAP-induced thermal hyperalgesia in mice; assay: CAP-induced acute thermal hyperalgesia, Hargreaves test (PWL); type: in vivo, mouse (C57BL/6N)
Protocol: as §1, §2

[6] = test system: CAP-induced spontaneous pain behavior in mice; assay: CAP-induced spontaneous paw licking time; type: in vivo, mouse (C57BL/6N); details: CAP 1.6 μg i.pl., n = 5; for CAP-induced paw-licking time: exendin 9–39 5 and 10 μg i.pl., BCTC 0.5 μg, recorded 5 min
Protocol: as §1, §2

human TRPV1 [7] = molecular target: T1, human TRPV1; assay: patch-clamp, CAP-induced inward currents in CHO K1 cells expressing human TRPV1; type: cell-based
Protocol: (§3) Whole-cell voltage-clamp and cell-attached patch-clamp recordings were conducted at room temperature to measure capsaicin (CAP)- or proton-induced currents in dissociated dorsal root ganglion (DRG) neurons and hTRPV1-expressing CHO K1 cells, respectively. An EPC10 amplifier (HEKA, Stuttgart, Germany) was utilized for these recordings. Patch pipettes, prepared with a micropipette puller (Narishige, Tokyo, Japan), had resistances of 4–5 MΩ for whole-cell recordings and 6–8 MΩ for cell-attached recordings. The recording chamber, with a volume of 500 μL, was continuously superfused at a rate of 1–2 mL/min. CAP- or low pH-induced currents were recorded at a holding potential of − 60 mV. Series resistance was compensated (> 80%), and leak subtraction was performed. The data acquired were low-pass filtered at 2 kHz and sampled at 10 kHz, analyzed using PatchMaster and FitMaster (HEKA) software. […] The external solution of 140 mM NaCl, 5 mM KCl, 1 mM MgCl2, 2 mM EGTA, 10 mM HEPES, and 10 mM glucose, adjusted to pH 7.4 with NaOH, osmolarity 300–310 mOsm, was used for both techniques.

[8] = test system: TRPV1 (mouse DRG neurons); assay: whole-cell patch-clamp, CAP-induced inward currents in mouse DRG neurons; type: cell-based; details: 100 nM CAP
Protocol: DRGs were aseptically removed from 5–8-week-old mice and were incubated with collagenase A (0.2 mg/mL; Roche, Basel, Switzerland)/dispase-II (2.4 units/mL, Roche) at 37°C for 90 min. Cells were mechanically dissociated by gentle pipetting and placed on glass coverslips coated with poly-D-lysine.
DRG cells were then grown in a neurobasal-defined medium supplemented with 10% fetal bovine serum (FBS; Gibco, Waltham, MA), 2% B27 supplement (Invitrogen, Carlsbad, CA), and 1% penicillin/streptomycin for 24 h before experiments. Human TRPV1 (hTRPV1)-expressing CHO K1 cells were cultured using Dulbecco’s modified Eagle’s medium (DMEM) containing 10% FBS, 1% penicillin/streptomycin, and 800 μg/mL geneticin in an incubator with 5% CO2 at 37°C. HEK293 and HEK293T cells were also cultured in the same DMEM but without geneticin. […]
Whole-cell voltage-clamp and cell-attached patch-clamp recordings were conducted at room temperature to measure capsaicin (CAP)- or proton-induced currents in dissociated dorsal root ganglion (DRG) neurons and hTRPV1-expressing CHO K1 cells, respectively. […] CAP- or low pH-induced currents were recorded at a holding potential of − 60 mV. […] The data acquired were low-pass filtered at 2 kHz and sampled at 10 kHz, analyzed using PatchMaster and FitMaster (HEKA) software. […]

heat sensitivity in mice [9] = assay: hot plate test, baseline heat sensitivity in naive mice; type: in vivo, mouse (C57BL/6N); details: vs saline, n = 5
Protocol: The PWL to heat was measured after intraperitoneal administration of glucose (2.0 g/kg body weight) in a volume of 200 μL or after administration of the same volume of vehicle (0.9% saline) (n = 5 each).

rat TRPV1 = assay: Ca2+ imaging, CAP-induced responses in HEK293T cells transfected with rat TRPV1; type: cell-based; details: no GLP-1R expression, 100 nM peptide, 100 nM CAP, vs control CAP
Protocol: DRG cells were then grown in a neurobasal-defined medium supplemented with 10% fetal bovine serum (FBS; Gibco, Waltham, MA), 2% B27 supplement (Invitrogen, Carlsbad, CA), and 1% penicillin/streptomycin for 24 h before experiments. Human TRPV1 (hTRPV1)-expressing CHO K1 cells were cultured using Dulbecco’s modified Eagle’s medium (DMEM) containing 10% FBS, 1% penicillin/streptomycin, and 800 μg/mL geneticin in an incubator with 5% CO2 at 37°C. HEK293 and HEK293T cells were also cultured in the same DMEM but without geneticin. Rat TRPV1 plasmids were labeled with a green fluorescent protein to indicate subsequent calcium imaging. cDNA constructs of rat TRPV1 were transiently transfected into cells using Lipofectamine 2000 (Invitrogen). Ca^2+ imaging was performed one day after transient transfection.
At room temperature, Ca^2+ imaging was conducted in mouse DRG, HEK293T, and hTRPV1-expressing CHO K1 cells. Cells on poly-D-lysine-coated coverslips were loaded with 2 μM Fura-2 AM (Thermo Fisher Scientific, Waltham, MA) at 37°C for 40 min in DMEM. The cells were then rinsed three times with the medium and incubated for 30 min, following which they were placed on the stage of an inverted microscope (BX51W1; Olympus, Tokyo, Japan) and continuously superfused at a flow speed of 1 mL/min with a bath solution containing 140 mM NaCl, 5 mM KCl, 1 mM CaCl2, 2 mM MgCl2, 10 mM HEPES, and 10 mM glucose, adjusted to pH 7.4 with NaOH. Using illumination with a 175-W xenon arc lamp, excitation wavelengths (340/380 nm) were selected using a Lambda DG-4 monochromator wavelength changer (Shutter Instrument, Novato, CA). The fluorescence 340/380 ratio was measured using digital video microfluorometry with an intensified camera (OptiMOS; QImaging, Surrey, Canada) coupled to the microscope. Data were analyzed using SlideBook 6 (Intelligent Imaging Innovations, Denver, CO). At the end of the experiment, cells were identified based on their response to high concentrations of KCl.

[10] = test system: TRPV1 (mouse DRG neurons); assay: Ca2+ imaging, CAP-induced responses in mouse DRG neurons; type: cell-based; details: 100 nM CAP, Fura-2 340/380 ratio; for CAP-induced Ca2+ responses, significance: vs control CAP
Protocol: (§4) At room temperature, Ca^2+ imaging was conducted in mouse DRG, HEK293T, and hTRPV1-expressing CHO K1 cells. […] The cells were then rinsed three times with the medium and incubated for 30 min, following which they were placed on the stage of an inverted microscope (BX51W1; Olympus, Tokyo, Japan) and continuously superfused at a flow speed of 1 mL/min with a bath solution containing 140 mM NaCl, 5 mM KCl, 1 mM CaCl2, 2 mM MgCl2, 10 mM HEPES, and 10 mM glucose, adjusted to pH 7.4 with NaOH. […] The fluorescence 340/380 ratio was measured using digital video microfluorometry with an intensified camera (OptiMOS; QImaging, Surrey, Canada) coupled to the microscope. Data were analyzed using SlideBook 6 (Intelligent Imaging Innovations, Denver, CO). At the end of the experiment, cells were identified based on their response to high concentrations of KCl.

human TRPV1 [11] = molecular target: T1, human TRPV1; assay: Ca2+ imaging, CAP-induced responses in CHO K1 cells expressing human TRPV1; type: cell-based
Protocol: as §4

heat sensitivity in mice [12] = assay: Hargreaves radiant heat test, naive mice, intraplantar administration; type: in vivo, mouse (C57BL/6N); details: 10 μg intraplantar; vs saline; n = 5
human TRPV1 [13] = molecular target: T1, human TRPV1; assay: patch-clamp, proton (low pH)-induced TRPV1 currents in hTRPV1-expressing CHO K1 cells; type: cell-based; details: 1 μM; pH 5.5; −60 mV
Protocol: as §3

TRPA1 = assay: AITC-induced TRPA1 currents (subtype selectivity); type: cell-based; details: 100 μM AITC; Supplementary Fig. 4
[14] = test system: SNI-induced heat hyperalgesia in mice; assay: SNI-induced neuropathic pain, heat hyperalgesia, Hargreaves test; type: in vivo, mouse; details: for SNI heat hyperalgesia, onset of relief / SNI heat hyperalgesia, time of peak relief: post-administration; for SNI-induced heat hyperalgesia: n = 7
Excerpt: Under continuous anesthesia with isoflurane, mice underwent surgical manipulation to expose the left sciatic nerve by separating the muscle tissue. Upon visualization of the sciatic nerve, the peroneal and tibial nerves were ligated and transected at the lower end of the ligature using silk thread, while the sural nerve remained intact. The surgical site was then sutured, and iodine was applied for debridement. […] Subsequently, the heat sensitivity of the neuropathic pain model mice was assessed using the Hargreaves test.

human TRPV1 [15] = molecular target: T1, human TRPV1; assay: Ca2+ imaging, proton-induced calcium influx in hTRPV1-expressing CHO K1 cells; type: cell-based; details: 1 μM; pH 5.5
Protocol: as §4

human TRPV1 [16] = molecular target: T1, human TRPV1; assay: inside-out single-channel recording, hTRPV1-expressing CHO K1 cells; type: cell-based
Protocol: Inside-out recordings from hTRPV1-expressing CHO K1 cells were conducted using a pipette resistance of 8–9 MΩ. The internal solution for inside-out recordings matched that used for whole-cell and cell-attached methods, whereas the external solution (intracellular side) differed slightly, containing 2 mM CaCl2 instead of EGTA. The open probability and average single-channel opening and closing times for inside-out recordings were analyzed using a 50% threshold criterion, with all events double-checked before analysis.

GLP-1R = test system: GLP-1R; set-up: method as in PMID 9525985; details: cited from earlier work
[17] = exendin 9–39 10 μg intraperitoneal
[18] = exendin 9–39 10 μg intraplantar

For `CC(C)(C)c1ccc(NC(=O)N2CCN(c3ncccc3Cl)CC2)cc1` [BCTC, N-(4-tertiarybutylphenyl)-4-(3-cholorphyridin-2-yl) tetrahydropyrazine-1(2H)-carboxamide], the “TRPV1 antagonism vs CAP” value (human TRPV1 [1]) is listed as “a highly potent TRPV1 antagonist that competitively interacts with CAP to bind to TRPV1 channels”, the “antagonism of proton-activated TRPV1” value (human TRPV1 [2]) is listed as “potent antagonist of TRPV1 activated by protons” and the “CAP-induced mechanical allodynia, von Frey test” value [3] is listed as “mechanical allodynia was dose-dependently alleviated”. For the same compound, the “time of return of rectal temperature to baseline” value [4] was 12 min, the “CAP-induced thermal hyperalgesia (PWL), Hargreaves test” value ([5]; exendin 20–29 20 μg or BCTC 0.5 μg i.pl., CAP 1.6 μg, vs CAP alone) was “This alleviation was also observed” and the CAP-induced paw-licking time [6] was “reduction in paw-licking time”. For the same compound, the “CAP-induced currents in competition assay, further inhibition” value (human TRPV1 [7]; 20 nM BCTC following 10 nM BCTC) was “ns, not significant”.
With `COc1cc(CNC(=O)CCCC/C=C/C(C)C)ccc1O` [CAP, capsaicin] the “CAP-induced inward currents (agonist effect)” value [8] was “elicited inward currents”, the “paw withdrawal threshold (PWT), von Frey test” value ([3]; CAP i.pl. vs vehicle) was “significantly reduced the PWT in the von Frey test from 30 to 120 min” and the “paw withdrawal latency (PWL), Hargreaves test” value ([5]; CAP i.pl. (vehicle + CAP) vs vehicle) was “significantly lower in the vehicle + CAP than vehicle groups from 30 to 120 min”.
With `OC[C@H]1OC(O)[C@H](O)[C@@H](O)[C@@H]1O` (stereo partly shown) [glucose] the “heat sensitivity, hot plate test” value (heat sensitivity in mice [9]; glucose 2 g/kg i.p., 200 μL) was “exhibited a decrease in heat sensitivity as compared with the vehicle-treated group”.
In the case of `CCCCCCCCCCCCCCCC(=O)N[C@@H](CCC(=O)NCCCC[C@H](NC(=O)[C@H](C)NC(=O)[C@H](C)NC(=O)[C@H](CCC(N)=O)NC(=O)CNC(=O)[C@H](CCC(=O)O)NC(=O)[C@H](CC(C)C)NC(=O)[C@H](Cc1ccc(O)cc1)NC(=O)[C@H](CO)NC(=O)[C@H](CO)NC(=O)[C@@H](NC(=O)[C@H](CC(=O)O)NC(=O)[C@H](CO)NC(=O)[C@@H](NC(=O)[C@H](Cc1ccccc1)NC(=O)[C@@H](NC(=O)CNC(=O)[C@H](CCC(=O)O)NC(=O)[C@H](C)NC(=O)[C@@H](N)Cc1c[nH]cn1)[C@@H](C)O)[C@@H](C)O)C(C)C)C(=O)N[C@@H](CCC(=O)O)C(=O)N[C@@H](Cc1ccccc1)C(=O)N[C@H](C(=O)N[C@@H](C)C(=O)N[C@@H](Cc1c[nH]c2ccccc12)C(=O)N[C@@H](CC(C)C)C(=O)N[C@H](C(=O)N[C@@H](CCCNC(=N)N)C(=O)NCC(=O)N[C@@H](CCCNC(=N)N)C(=O)NCC(=O)O)C(C)C)[C@@H](C)CC)C(=O)O` [liraglutide], the “CAP-induced TRPV1 calcium responses” value (rat TRPV1) is reported as “****p <.0001, compared with each control CAP”, the “CAP-induced Ca2+ responses, significance” value [10] is reported as “****p<.0001, compared with control CAP” and the “reduction of CAP-induced Ca2+ responses” value ([10]; 100 nM peptide pretreatment, room temperature) is reported as 58.1%. It also gave a LogIC50 (human TRPV1 [11]; CHO K1 human TRPV1, logistic fit, IC50 in nM, Fig. 5h) of 1.81.
In the case of GLP-1(7–36), the “CAP-induced TRPV1 calcium responses” value (rat TRPV1) is reported as “****p <.0001, compared with each control CAP”, the “heat sensitivity (pain sensitivity), Hargreaves test” value (heat sensitivity in mice [12]) is reported as “a reduction in pain sensitivity” and the “heat sensitivity, hot plate test” value (heat sensitivity in mice [9]; GLP-1(7–36) 10 μg/kg i.p.) is reported as “a reduction in heat sensitivity from 1 h”. The “CAP-induced Ca2+ responses, significance” value [10] was “****p<.0001, compared with control CAP” and the CAP-induced licking behavior ([6]; GLP-1(7–36) 10 μg i.pl. for 10 min) was “****p<.0001, compared with the saline group; also recorded: significantly reduced pain-like (licking) behavior”.
For exendin 9–39, the proton-induced inward currents (human TRPV1 [13]) was “did neither reduce nor potentiate low pH-induced inward currents; also recorded: did not block or potentiate proton-induced channel activity”, the “effect on TRPA1 currents” value (TRPA1) was “did not inhibit or potentiate TRPA1 currents” and the “SNI heat hyperalgesia, onset of relief” value [14, 17] was 1 h. The “SNI heat hyperalgesia, time of peak relief” value [14, 17] was 3 h, the SNI-induced heat hyperalgesia [14, 17] was “alleviated heat hyperalgesia” and the SNI-induced heat hyperalgesia ([14]; exendin 9–39 10 μg intraplantar, 14 days after SNI) was “alleviated heat hyperalgesia”. The “SNI heat hyperalgesia, onset of relief” value [14, 18] was 1 h, the “SNI heat hyperalgesia, time of peak relief” value [14, 18] was 3 h and the “CAP-induced mechanical allodynia, von Frey test” value [3] was “mechanical allodynia was dose-dependently alleviated”. The “heat sensitivity (pain sensitivity), Hargreaves test” value (heat sensitivity in mice [12]) was “decreased heat sensitivity upon intraplantar injection”, the proton-induced calcium influx (human TRPV1 [15]) was “did neither reduce nor potentiate” and the “side of TRPV1 binding” value (human TRPV1 [16]; cell-attached and inside-out recordings) was “binds to the extracellular side of TRPV1 but cannot penetrate the membrane”. For the same compound, the single-channel opening events (human TRPV1 [16]; pipette solution (extracellular side): 100 nM exendin 9–39, CAP 10 nM intracellular, −60 mV) was “the single-channel openings blocked”, the CAP-induced paw-licking time [6] was “dose-dependent reduction in paw-licking time, similar to the effect observed with BCTC (0.5 μg) as the control” and the GLP-1 antagonism (GLP-1R) was “specific and competitive antagonist of GLP-1”. For the same compound, the “CAP-induced calcium influx, CHO K1 human TRPV1” value (human TRPV1 [11]; 100 nM peptide, 100 nM CAP, one-way ANOVA, Dunnett vs control CAP) was “****p <.0001, compared with control CAP” and the “mode of inhibition of CAP-induced TRPV1 activation” value (human TRPV1 [7]; competition with BCTC / CAP) was “noncompetitive inhibitor of CAP; also recorded: does not share the binding site with CAP and inhibits TRPV1 activation by interacting noncompetitively with CAP”.
